Measured values as given in patent US9145405B2, “Oxadiazole compound and preparation method thereof, pharmaceutical composition and use thereof” (SHANGHAI JIAO TONG UNIVERSITY, priority 2011, dated 2015).
Values after ≈ are worked out from the molar mass of the structure shown. Where two headings read alike, the source gives them in different places.

What was measured:
Cox_B3 virus = experiment: Anti-Cox_B3 test: inhibition of cytopathic effect (CPE) in infected Vero cells, Reed-Muench; type: cell-based; conditions: Cox_B3 virus in Vero cells, CPE, Reed-Muench method; for IC50: read-out: IC50 (half-inhibitory concentration for viruses)
Description: The present examples verifies experimental results of anti-Cox_B3 of the compounds 1-137of the present invention, Pleconaril, 3-[3,5-dimethyl-4-[5-(3-methy-1,2-oxazolyl)propoxy]phenyl]-5-(trifluonomethyl) -1,2,4-oxadiazole is used as positive control.

Vero cells = experiment: Toxicity (half toxic concentration) in the anti-Cox_B3 test on Vero cells; type: cell-based

Molecule	IC50 (half-inhibitory concentration for viruses) (Cox_B3 virus) [µg/mL]	TC50 (half of the toxic concentration) (Vero cells) [µg/mL]	IC50 (Cox_B3 virus) [µg/mL]	TC50 (half of the toxic concentration) (Vero cells; Vero cells, Cox_B3) [µg/mL]
6-[2,6-dimethyl-4-[(5-(trifluoromethyl)-1,2,4-oxadiazole-3-yl)phenoxyl]ethoxyl]-5-trifluoromethylpyridine [Compound 52]	0.13	41.28	–	–
6-[2,6-dimethyl-4-[(5-(trifluoromethyl)-1,2,4-oxadiazole-3-yl)phenoxyl]ethoxyl]-5-trifluoromethylpyridine [Compound 106]	0.09	36.36	–	–
6-[2,6-dimethyl-4-[(5-(trifluoromethyl)-1,2,4-oxadiazole-3-yl)phenoxyl]ethoxyl]pyridine-2-oxy-ethylketoxime [Compound 98]	0.093	42.89	–	–
Cc1cc(OCCOc2c(C)cc(-c3noc(C(F)(F)F)n3)cc2C)no1 [Compound 1, 3-[3,5-dimethyl-4-[2-(5-methylisoxazole-3-oxy)ethoxyl]phenyl]-5-(trifluoromethyl)-1,2,4-oxadiazole]	–	–	0.022 (≈ 0.0574 µM)	50.67
Cc1cc(OCCOc2c(C)cc(-c3noc(C)n3)cc2C)no1 [Compound 2, 3-[3,5-dimethyl-4-[2-(5-methylisoxazole-3-oxy)ethoxyl]phenyl]-5-methyl-1,2,4-oxadiazole]	–	–	0.091 (≈ 0.276 µM)	58.78
Cc1cc(-c2noc(C(F)(F)F)n2)cc(C)c1OCCOc1cc(C(F)(F)F)on1 [Compound 3, 3-[3,5-dimethyl-4-[2-(5-trifluoromethylisoxazole-3-oxy)ethoxyl]phenyl]-5-(trifluoromethyl)-1,2,4-oxadiazole]	–	–	0.18 (≈ 0.412 µM)	36.68
COC(=O)c1cc(OCCOc2c(C)cc(-c3noc(C(F)(F)F)n3)cc2C)no1 [Compound 4, 3-[2-[2,6-dimethyl-4-[5-(trifluoromethyl)-1,2,4-oxadiazole-3-yl]phenoxyl]ethoxyl]-isoxazole-5-carboxylate]	0.26	35.58	–	–
Cc1cc(-c2noc(C(F)(F)F)n2)cc(C)c1OCCOc1cc(C(F)(F)F)no1 [Compound 5, 3-[3,5-dimethyl-4-[2-(3-trifluoromethylisoxazole-5-oxy)ethoxyl]phenyl]-5-(trifluoromethyl)-1,2,4-oxadiazole]	–	–	0.05 (≈ 0.114 µM)	40.12
COC(=O)c1cc(OCCCOc2c(C)cc(-c3noc(C(F)(F)F)n3)cc2C)no1 [Compound 7, 3-[3-[2,6-dimethyl-4-[5-(trifluoromethyl)-1,2,4-oxadiazole-3-yl]phenoxyl]propoxy]-isoxazole-5-carboxylate]	0.24	36.48	–	–
Cc1cc(OCCCOc2c(C)cc(-c3noc(C(F)(F)F)n3)cc2C)on1 [Compound 8, 3-[3,5-dimethyl-4-[3-(3-methylisoxazole-5-oxy)propoxy]phenyl]-5-(trifluoromethyl)-1,2,4-oxadiazole]	–	–	0.021 (≈ 0.0528 µM)	52.38
Cc1cc(OCCOc2c(C)cc(-c3noc(C(F)(F)F)n3)cc2C)ns1 [Compound 10, 3-[3,5-dimethyl-4-[2-(5-methylisothiazole-3-oxy)ethoxyl]phenyl]-5-(trifluoromethyl)-1,2,4-oxadiazole]	–	–	0.042 (≈ 0.105 µM)	46.47
Cc1cc(OCCCOc2c(C)cc(-c3noc(C(F)(F)F)n3)cc2C)ns1 [Compound 11, 3-[3,5-dimethyl-4-[3-(5-methylisothiazole-3-oxy)propoxy]phenyl]-5-(trifluoromethyl)-1,2,4-oxadiazole]	–	–	0.058 (≈ 0.14 µM)	45.87
Cc1c[nH]c(OCCOc2c(C)cc(-c3noc(C(F)(F)F)n3)cc2C)n1 [Compound 12, 3-[3,5-dimethyl-4-[2-(4-methylimidazole-2-oxy)ethoxyl]phenyl]-5-(trifluoromethyl)-1,2,4-oxadiazole]	–	–	0.12 (≈ 0.314 µM)	40.27
Cc1csc(OCCOc2c(C)cc(-c3noc(C(F)(F)F)n3)cc2C)n1 [Compound 13, 3-[3,5-dimethyl-4-[2-(4-methylthiazole-2-oxy)ethoxyl]phenyl]-5-(trifluoromethyl)-1,2,4-oxadiazole]	–	–	0.15 (≈ 0.376 µM)	38.68
Cc1cc(OCCOc2c(C)cc(-c3noc(C(F)(F)F)n3)cc2C)[nH]n1 [Compound 15, 3-[3,5-dimethyl-4-[2-(3-methyl-1H-pyrazole-5-oxy)ethoxyl]phenyl]-5-(trifluoromethyl)-1,2,4-oxadiazole]	–	–	0.12 (≈ 0.314 µM)	42.38
Cc1cc(-c2noc(C(F)(F)F)n2)cc(C)c1OCCOc1cc(C(F)(F)F)nn1C [Compound 16, 3-[3,5-dimethyl-4-[2-[1-methyl-3-(trifluoromethyl)-1H-pyrazole-5-oxy]ethoxyl]phenyl]-5-(trifluoromethyl)-1,2,4-oxadiazole]	–	–	0.09 (≈ 0.2 µM)	41.38
Cc1cc(-c2noc(C(F)(F)F)n2)cc(C)c1OCCOc1cc(C(=O)O)nn1C [Compound 17, 5-[2-[2,6-dimethyl-4-[5-(trifluoromethyl)-1,2,4-oxadiazole-3-yl]phenoxyl]ethoxyl]-1-methyl-1H-pyrazole-3-carboxylic acid]	–	–	0.07 (≈ 0.164 µM)	44.39
Cc1cc(-c2nc(C(F)(F)F)no2)cc(C)c1OCCOc1noc(C(F)(F)F)n1 [Compound 22]	0.08	40.78	–	–
Cc1nnc(OCCOc2c(C)cc(-c3noc(C(F)(F)F)n3)cc2C)[nH]1 [Compound 24, 3-[2-[2,6-dimethyl-4-[5-(trifluoromethyl)-1,2,4-oxadiazole-3-yl]phenoxyl]ethoxyl]-5-methyl-4H-1,2,4-triazole]	–	–	0.03 (≈ 0.0783 µM)	42.23
Cc1nnc(SCCOc2c(C)cc(-c3noc(C(F)(F)F)n3)cc2C)[nH]1 [Compound 25, 3-[2-[2,6-dimethyl-4-[5-(trifluoromethyl)-1,2,4-oxadiazole-3-yl]phenoxyl]ethylthio]-5-methyl-4H-1,2,4-triazole]	–	–	0.09 (≈ 0.225 µM)	40.21
Cc1cc(-c2noc(C(F)(F)F)n2)cc(C)c1OCCSc1nnc(C(F)(F)F)[nH]1 [Compound 26, 3-[2-[2,6-dimethyl-4-[5-(trifluoromethyl)-1,2,4-oxadiazole-3-yl]phenoxyl]ethylthio]-5-trifluoromethyl-4H-1,2,4-triazole]	–	–	0.06 (≈ 0.132 µM)	38.35
